Data taken from US8093299B2, “Methods of treating bowel disorders” (Amgen Inc., priority 2007, dated 2012).
Several values for one entry are separate records, joined by “and”; a condition that tells them apart may be missing. Equal entries are not always repeated. Entries after “also recorded” stand apart in the source; their conditions may differ.

Key:
[1] = system: 5% DSS induced colitis in SJL/J mice; assay: DSS-induced colitis in mice, histopathologic inflammation score of large intestine; format: in vivo, mouse
Text: Animals. Female SJL/J mice aged 8-10 weeks were used for this study, purchased from Jackson Laboratories (Bar Harbour, Me.). Female Spraque-Dawley rats (approximately 150-300 grams) were purchased from Charles River Laboratories Inc. (Wilmington, Mass.). Mdr1a−/− mice (FVB.129P2-Abcb1a^tm1BorN7), weight 20-21 g, 8 weeks at initiation of experiments, were housed and maintained (5 per cage) in the animal facility at Amgen Washington. All animals were cared for according to the standard protocols of the Amgen Institutional Animal Care and Use Committee.
Chemical reagents. Dextran sodium sulfate (DSS) with molecular mass 36-50 kDa was purchased from ICN Chemicals, Aurora, Ohio. The DSS solution was prepared as a 5% w/v solution in sterile water (Baxter Healthcare Corporation) and sterile filtered through a 0.45 μm filter before being added to drinking water. Water for the negative control groups was similarly filtered. FK506, (also known as Tacrolimus, active ingredient in Prograf®), chemical name [3S-[3R*[E(1S*,3S*,4S*)],4S*,5R*,8S*,9E,12R*,14R*,15S*,16R*,18S*,19S*,26aR*]]-5,6,8,11,12,13,14,15,16,17,18,19,24,25,26,26a-hexadecahydro-5,19-dihydroxy-3-[2-(4-hydroxy-3-methoxycyclohexyl)-1-methylethenyl]-14,16-dimethoxy-4,10,12,18-tetramethyl-8-(2-propenyl)-15,19-epoxy-3H-pyrodi[2,1-c][1,4]oxaazacyclotricosine-1,7,20,21(4H, 23H)-tetrone monohydrate, was used as a positive control for the inflammation treatment. Tacrolimus is a macrolide immunosuppressant produced by Streptomyces tsukubaensis. The solution of FK506 (Prograf®, Astellas) was prepared as follows: 0.1 mg/ml solution in phosphate buffered saline (PBS) was prepared by diluting 5 mg/ml stock solution. The animals were dosed with FK506 at 1 mg/kg in 200 μl of PBS.
Calcimimetic solutions (Compound A, 3-(2-chlorophenyl)-N-((1R)-1-(3-(methyloxy)phenyl)ethyl)-1-propanamine, Compound B, (1R)-N-((6-(methyloxy)-4′-(trifluoromethyl)-3-biphenylyl)methyl)-1-phenylethanamine, Compound C, N-(2-chloro-5-((((1R)-1-phenylethyl)amino)methyl)phenyl)-5-methyl-3-isoxazolecarboxamide, and Compound D, N-(2-chloro-5-((((1R)-1-phenylethyl)amino)methyl)phenyl)-2-pyridinecarboxamide) were formulated and dosed in free base equivalents at volumes determined by the pharmacologist. Formulation vehicle was 20% (w/v) Captisol (β-Cyclodextrin Sulfobutyl Ether Sodium Salt, Research Grade from CyDex, Inc.) in water with a final pH of 2.0-2.2 at room temperature, adjusted with HCl and NaOH as required. Final concentrations of DMSO never exceeded 0.1% (v/v).
DSS colitis in mice. All experiments were performed on groups of 8 to 10 SJL-J mice, housed in the same cage. For disease induction, mice were given a 5% DSS ad libitum as drinking water for 9 days.
Postmortem evaluation. Mice and rats were euthanized by CO2 asphyxiation. The large intestine were removed from the carcass, evaluated for gross lesions and three individual non-adjacent segments of proximal, middle and distal large intestine 2 centimeters long were immersed in the Zinc Formalin fix for 24 hours. At the end of 24 hours the sections were washed with tap water and put into 70% ethanol. Each section was then cut into three 3 mm pieces (9 pieces per animal), processed into paraffin blocks, and sections were cut in 5 μm sections and stained with hematoxylin and eosin.
Histopathologic changes of the proximal, middle, and distal small and large intestine was scored as a global assessment of inflammation based on inflammatory infiltrate, edema, mucosal erosions or ulcerations as described in Table 6.
For disease induction, treated mice were given 5% DSS in water ad libitum as drinking water for 9 days as described in Example 1 and were concurrently treated orally during that period with one of the treatments listed in Table 8.
FIG. 1 and Table 8 summarize the effect of the calcimimetic compound B on colonic inflammation in 5% DSS induced colitis. Animals were euthanized with carbon dioxide on day nine post treatment. […]

[2] = system: colitis in mdr1a-/- mice induced by H. bilis; assay: Colitis in mdr1a-/- mice infected with Helicobacter bilis (clinical score, disease onset, histology); format: in vivo, mouse; conditions: for Total LI score (Max = 12), individual animals / GI Inflammation LI DISTAL, individual animals / GI Inflammation LI MIDDLE, individual animals / GI Inflammation LI PROXIMAL, individual animals: listed as R-B; for GI Inflammation LI DISTAL, individual animals / GI Inflammation LI MIDDLE, individual animals / GI Inflammation LI PROXIMAL, individual animals: score 0-4; for disease onset compared to vehicle control group: Log-Rank test, p-value=0.04
[3] = Serum calcium and phosphorus in mdr1a-/- colitis study; format: in vivo, mouse; conditions: day 38
Procedure: (§1) All mice were necropsied on day 38 post initial inoculation. Mice were euthanized by CO2 asphyxiation. Blood was obtained by intracardiac puncture and collected in serum separator tubes. Serum was harvested and stored at −80° C. Colons were dissected below the cecum and just above the anus, and the contents of the lumen were removed. Sections of the proximal, middle, and distal colon regions were fixed in 10% neutral buffered formalin for histopathological analysis.
(§2) Serum clinical chemistry analysis was performed on the Olympus AU400 using standard tests and protocols. Calcium and phosphorus measurements were performed on undiluted serum for all samples. Serum cytokines and chemokines were assayed by Lincoplex mouse cytokine/chemokine muliplex immunoassasy (Millipore; Billerica, Mass.) per manufacturer instructions.
(§3) Results for serum analytes were expressed as the mean±standard error of the mean (SEM). A one-way ANOVA with Tukey's post test was performed using GraphPad Prism. A p-value of 0.05 was used in the calculation to determine whether there were significant differences between any two groups. Results for disease onset were expressed as a standard survival curve. A Log-Rank (Mantel-Cox) Test was performed using GraphPad Prism to determine significance. A p-value of 0.05 was used in the calculation to determine whether there were significant differences between any two groups. Results for clinical score and histology score were expressed as the mean±SEM. A Cochran-Mantel-Haenszel mean score test was performed using SAS software. A p-value of 0.05 was used in the calculation to determine whether there were significant differences between any two groups.

IP-10 = assay: Serum IP-10 in mdr1a-/- colitis study; format: in vivo, mouse
Procedure: as §1, §2, §3

[4] = Absorption from the gut into the bloodstream
[5] = 10 mg/kg oral, 5% DSS 9 days, vs Captisol vehicle, p<0.01
[6] = R-Compound B 10 and 3 mg/kg groups
[7] = 30 mg/kg oral, 5% DSS 9 days, vs Captisol vehicle

COc1ccc(CN[C@H](C)c2ccccc2)cc1-c1ccc(C(F)(F)F)cc1 [Compound B, (1R)-N-((6-(methyloxy)-4′-(trifluoromethyl)-3-biphenylyl)methyl)-1-phenylethanamine]
animals lacking inflammatory changes (colon normal) ([1]; 10 mg/kg oral, 5% DSS 9 days): Four out of ten | mean large intestine inflammatory score, combined segments [1, 5]: statistically significant decreased | mean large intestine inflammatory score, middle segment [1, 5]: statistically significant decreased | mean large intestine inflammatory score, distal segment ([1]; 10 mg/kg oral, 5% DSS 9 days, vs Captisol vehicle, p<0.05): statistically significant decreased | Animals with colonic inflammation/total animals ([1]; 5% DSS 9 days, SJL/J mice, oral, Compound B 10 mg/kg, FK 506 1 mg/kg): 6/10 | mean inflammatory score in combined colonic segments compared to FK 506 treatment ([1]; Compound B 10 mg/kg vs FK 506 1 mg/kg, oral, 5% DSS): statistically significant (p<0.05) decrease | Average LI score ([2]; 3 mg/kg PO daily, day 38): 1.6 | GI Inflammation LI DISTAL, Segment Mean ([2]; 3 mg/kg PO daily, day 38): 0.60 | GI Inflammation LI MIDDLE, Segment Mean ([2]; 3 mg/kg PO daily, day 38): 0.60 | GI Inflammation LI PROXIMAL, Segment Mean ([2]; 3 mg/kg PO daily, day 38): 0.40 | Total LI score (Max = 12), individual animals ([2]; 3 mg/kg PO daily, day 38): 0 (8×) and 8 (2×) | GI Inflammation LI DISTAL, individual animals ([2]; 3 mg/kg PO daily, day 38): 0 (8×) and 3 (2×) | GI Inflammation LI MIDDLE, individual animals ([2]; 3 mg/kg PO daily, day 38): 0 (8×) and 3 (2×) | GI Inflammation LI PROXIMAL, individual animals ([2]; 3 mg/kg PO daily, day 38): 0 (8×) and 2 (2×) | day on which an animal began showing clinical signs of colitis (disease onset) ([2]; 3 mg/kg PO daily, first and second animal, listed as R-Compound B): 17 days and 31 days | day on which animals began showing clinical symptoms (disease onset) ([2]; 10 mg/kg PO daily): 32 days | disease onset compared to vehicle control group ([2]; 10 mg/kg PO daily): significantly different | disease onset compared to vehicle control group ([2]; 10 mg/kg PO daily, listed as R-Compound B): statistically significant difference | Average LI score ([2]; 10 mg/kg PO daily, day 38): 0.9 | GI Inflammation LI DISTAL, Segment Mean ([2]; 10 mg/kg PO daily, day 38): 0.30 | GI Inflammation LI MIDDLE, Segment Mean ([2]; 10 mg/kg PO daily, day 38): 0.20 | GI Inflammation LI PROXIMAL, Segment Mean ([2]; 10 mg/kg PO daily, day 38): 0.40 | Total LI score (Max = 12), individual animals ([2]; 10 mg/kg PO daily, day 38): 2 and 0 (8×) and 7 | GI Inflammation LI DISTAL, individual animals ([2]; 10 mg/kg PO daily, day 38): 0 (9×) and 3 | GI Inflammation LI MIDDLE, individual animals ([2]; 10 mg/kg PO daily, day 38): 0 (9×) and 2 | GI Inflammation LI PROXIMAL, individual animals ([2]; 10 mg/kg PO daily, day 38): 2 (2×) and 0 (8×) | clinical scores compared to vehicle group ([2]; 10 mg/kg PO daily, final day (day 38), p<0.05): significantly lower clinical scores | anal inflammation score of animals showing clinical symptoms [2, 6]: none had an anal inflammation score above moderate | development of diarrhea [2, 6]: no animal developed diarrhea | number of animals with clinical symptoms of disease on the final day of the study ([2]; day 38, per treatment group (S-Compound B 10 mg/kg, n=5; R-Compound B 10 mg/kg and 3 mg/kg, n=10 each)): one | percentage of animals with colon pathology ([2]; each R-Compound B group (10 and 3 mg/kg)): 20% | overall effect on development, onset, incidence and severity of colitis ([2]; mdr1a-/- mice, 10 or 3 mg/kg PO daily, listed as R-Compound B): attenuates the development of colitis; also recorded: delayed the onset of colitis and reduced the severity of disease; also recorded: reduced the incidence and severity of disease; also recorded: inhibited the development and severity of colitis | animals with colitis / colon pathology by histology ([2]; per group: R-Compound B 10 and 3 mg/kg each, S-Compound B 10 mg/kg): 2 out of 10 | serum phosphorus compared to the S-Compound B treated group only ([3]; 3 mg/kg PO daily): significant elevation | serum calcium compared to CTLA4 and vehicle control groups ([3]; 10 mg/kg PO daily): significant calcium reductions | serum phosphorus levels compared to all control groups ([3]; 10 mg/kg PO daily): significantly elevated | serum calcium levels compared to uninfected controls ([3]; both R-Compound B groups (10 and 3 mg/kg PO daily)): significantly reduced | difference in production of serum IP-10 vs vehicle control group (IP-10; 10 mg/kg PO daily, p=0.06): approached significance | elevation of serum IP-10 (IP-10; treatment groups vs vehicle treated animals): less elevation

Cc1cc(C(=O)Nc2cc(CN[C@H](C)c3ccccc3)ccc2Cl)no1 [Compound C, N-(2-chloro-5-((((1R)-1-phenylethyl)amino)methyl)phenyl)-5-methyl-3-isoxazolecarboxamide]
inflammation scores in all parts of colon compared to vehicle (FIG. 2) ([1]; 30 mg/kg oral, 5% DSS): reduce inflammation scores | decrease in mean large intestine inflammatory score, combined [1, 7]: 30% | decrease in mean large intestine inflammatory score, distal [1, 7]: 49% | decrease in mean large intestine inflammatory score, middle [1, 7]: 20% | decrease in mean large intestine inflammatory score, proximal [1, 7]: 15% | absorption from the gut into the bloodstream [4]: not to be absorbed readily

C[C@@H](NCc1ccc(Cl)c(NC(=O)c2ccccn2)c1)c1ccccc1 [Compound D, N-(2-chloro-5-((((1R)-1-phenylethyl)amino)methyl)phenyl)-2-pyridinecarboxamide]
inflammation scores in all parts of colon compared to vehicle (FIG. 2) ([1]; 30 mg/kg oral, 5% DSS): reduce inflammation scores | animals lacking inflammatory changes (colon normal) ([1]; 30 mg/kg oral, 5% DSS 9 days): Two out of eight | decrease in mean large intestine inflammatory score, combined [1, 7]: 48% | decrease in mean large intestine inflammatory score, distal [1, 7]: 68% | decrease in mean large intestine inflammatory score, middle [1, 7]: 29% | decrease in mean large intestine inflammatory score, proximal [1, 7]: 44% | absorption from the gut into the bloodstream [4]: not to be absorbed readily
